Experimental data as given in patent US10005767B2, “Compositions and methods for inhibition of the JAK pathway” (Rigel Pharmaceuticals, Inc., priority 2009, dated 2018).
Counter-ions that a name gives are not always drawn.

tested on: human primary T-cells, IL-2 stimulated proliferation (JAK-1 and JAK-3 dependent; reported as JAK3 activity); experiment: Human primary T-cell proliferation stimulated by IL-2 (Example 3); assay type: cell-based; conditions: Homo sapiens, T-cell, tested under conditions described in Example 3 (IL-2 stimulated human primary T-cell proliferation); read-out: ability to inhibit JAK3 activity, IC50 range (Table V)
Outline: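 Peripheral-blood human T-cells pre-activated via TCR/CD28, IL-2-starved overnight, then cultured 72 h at 37 °C with compound in Yssel's medium containing IL-2 (80 U/mL in cell suspension). Proliferation read as viable-cell ATP by CellTiter-Glo luminescence; reduction versus control taken as JAK pathway inhibition.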

Row | Compound | IC50
1 | COc1cc(Nc2ncc(C)c(Nc3cc(F)c4oc(=O)[nH]c4c3)n2)cc(C)c1OC [Compound I-454, 5-(2-(3,4-dimethoxy-5-methylphenylamino)-5-methylpyrimidin-4-ylamino)-7-fluorobenzo[d]oxazol-2(3H)-one] | < 500 nM
2 | Cc1cnc(Nc2ccc(F)cc2F)nc1Nc1ccc2oc(=O)[nH]c2c1 [Compound I-456, 5-[2-(2,4-Difluoro-phenylamino)-5-methyl-pyrimidin-4-ylamino]-3H-benzooxazol-2-one] | < 500 nM
3 | CNC(C)c1cc(Nc2ncc(C)c(Nc3ccc4oc(=O)[nH]c4c3)n2)cc(C(F)(F)F)c1 (stereo not shown) [Compound I-457, 5-(5-methyl-2-(3-(1-(methylamino)ethyl)-5-(trifluoromethyl)phenylamino)pyrimidin-4-ylamino)benzo[d]oxazol-2(3H)-one] | < 500 nM
4 | COc1cc(Nc2ncc(C)c(Nc3ccc4oc(=O)[nH]c4c3)n2)cc(Cl)c1OC [Compound I-458, 5-(2-(3-chloro-4,5-dimethoxyphenylamino)-5-methylpyrimidin-4-ylamino)benzo[d]oxazol-2(3H)-one] | < 500 nM
5 | Cc1cnc(Nc2cc(C)c(OCCN3CCOCC3)c(C)c2)nc1Nc1ccc2oc(=O)[nH]c2c1 [Compound I-459, 5-(2-(3,5-dimethyl-4-(2-morpholinoethoxy)phenylamino)-5-methylpyrimidin-4-ylamino)benzo[d]oxazol-2(3H)-one] | < 500 nM
6 | CCCC(NC)c1cc(Nc2ncc(C)c(Nc3ccc4oc(=O)[nH]c4c3)n2)cc(C(F)(F)F)c1 (stereo not shown) [Compound I-460, 5-(5-methyl-2-(3-(1-(methylamino)butyl)-5-(trifluoromethyl)phenylamino)pyrimidin-4-ylamino)benzo[d]oxazol-2(3H)-one] | < 500 nM
7 | Cc1cnc(Nc2cc(C(C)NC3CC3)cc(C(F)(F)F)c2)nc1Nc1ccc2oc(=O)[nH]c2c1 (stereo not shown) [Compound I-461, 5-(2-(3-(1-(cyclopropylamino)ethyl)-5-(trifluoromethyl)phenylamino)-5-methylpyrimidin-4-ylamino)benzo[d]oxazol-2(3H)-one] | < 500 nM
8 | CCNC(C)c1cc(Nc2ncc(C)c(Nc3ccc4oc(=O)[nH]c4c3)n2)cc(C(F)(F)F)c1 (stereo not shown) [Compound I-462, 5-(2-(3-(1-(ethylamino)ethyl)-5-(trifluoromethyl)phenylamino)-5-methylpyrimidin-4-ylamino)benzo[d]oxazol-2(3H)-one] | < 500 nM
9 | Cc1cnc(Nc2cc(C(C)N3CCCC3)cc(C(F)(F)F)c2)nc1Nc1ccc2oc(=O)[nH]c2c1 (stereo not shown) [Compound I-463, 5-(5-methyl-2-(3-(1-(pyrrolidin-1-yl)ethyl)-5-(trifluoromethyl)phenylamino)pyrimidin-4-ylamino)benzo[d]oxazol-2(3H)-one] | < 500 nM
10 | Cc1cnc(Nc2cc(C(C)N3CCC3)cc(C(F)(F)F)c2)nc1Nc1ccc2oc(=O)[nH]c2c1 (stereo not shown) [Compound I-464, 5-(2-(3-(1-(azetidin-1-yl)ethyl)-5-(trifluoromethyl)phenylamino)-5-methylpyrimidin-4-ylamino)benzo[d]oxazol-2(3H)-one] | < 500 nM
11 | Cc1cnc(Nc2cc(C(C)NC3CCC3)cc(C(F)(F)F)c2)nc1Nc1ccc2oc(=O)[nH]c2c1 (stereo not shown) [Compound I-465, 5-(2-(3-(1-(cyclobutylamino)ethyl)-5-(trifluoromethyl)phenylamino)-5-methylpyrimidin-4-ylamino)benzo[d]oxazol-2(3H)-one] | < 500 nM
12 | Cc1cnc(Nc2cc(F)ccc2F)nc1Nc1ccc2oc(=O)[nH]c2c1 [Compound I-466, 5-[2-(2,5-Difluoro-phenylamino)-5-methyl-pyrimidin-4-ylamino]-3H-benzooxazol-2-one] | < 500 nM
13 | Cc1cnc(Nc2cccc(F)c2F)nc1Nc1ccc2oc(=O)[nH]c2c1 [Compound I-467, 5-[2-(2,3-Difluoro-phenylamino)-5-methyl-pyrimidin-4-ylamino]-3H-benzooxazol-2-one] | < 500 nM
14 | Cc1cnc(Nc2ccccc2F)nc1Nc1ccc2oc(=O)[nH]c2c1 [Compound I-468, 5-[2-(2-Fluoro-phenylamino)-5-methyl-pyrimidin-4-ylamino]-3H-benzooxazol-2-one] | < 500 nM
15 | Cc1cnc(Nc2cc(C(=O)NC3CCC3)cc(C(F)(F)F)c2)nc1Nc1ccc2oc(=O)[nH]c2c1 [Compound I-469, N-Cyclobutyl-3-[5-methyl-4-(2-oxo-2,3-dihydro-benzooxazol-5-ylamino)-pyrimidin-2-ylamino]-5-trifluoromethyl-benzamide] | < 500 nM
16 | Cc1cnc(Nc2ccc(F)cc2)nc1Nc1ccc2oc(=O)[nH]c2c1 [Compound I-470, 5-[2-(4-Fluoro-phenylamino)-5-methyl-pyrimidin-4-ylamino]-3H-benzooxazol-2-one] | < 500 nM

Row | Compound | IC50
17 | Cc1cnc(Nc2ccc(F)c(-c3ccncc3)c2)nc1Nc1ccc2oc(=O)[nH]c2c1 [Compound I-471, 5-(2-(4-fluoro-3-(pyridin-4-yl)phenylamino)-5-methylpyrimidin-4-ylamino)benzo[d]oxazol-2(3H)-one] | < 500 nM
18 | Cc1cnc(Nc2ccc(F)c(-c3cccnc3)c2)nc1Nc1ccc2oc(=O)[nH]c2c1 [Compound I-472, 5-(2-(4-fluoro-3-(pyridin-3-yl)phenylamino)-5-methylpyrimidin-4-ylamino)benzo[d]oxazol-2(3H)-one] | < 500 nM
19 | Cc1cnc(Nc2cc(C(C)NC(C)C)cc(C(F)(F)F)c2)nc1Nc1ccc2oc(=O)[nH]c2c1 (stereo not shown) [Compound I-473, 5-(2-(3-(1-(isopropylamino)ethyl)-5-(trifluoromethyl)phenylamino)-5-methylpyrimidin-4-ylamino)benzo[d]oxazol-2(3H)-one] | < 500 nM
20 | Cc1cc(C)cc(Nc2ncc(C)c(Nc3cc(C)c4oc(=O)[nH]c4c3)n2)c1 [Compound I-474, 5-(2-(3,5-dimethylphenylamino)-5-methylpyrimidin-4-ylamino)-7-methylbenzo[d]oxazol-2(3H)-one] | < 500 nM
21 | Cc1cnc(Nc2cc(C)c(C)c(C)c2)nc1Nc1cc(C)c2oc(=O)[nH]c2c1 [Compound I-475, 7-methyl-5-(5-methyl-2-(3,4,5-trimethylphenylamino)pyrimidin-4-ylamino)benzo[d]oxazol-2(3H)-one] | < 500 nM
22 | Cc1cnc(Nc2cc(C)c(F)c(C)c2)nc1Nc1cc(C)c2oc(=O)[nH]c2c1 [Compound I-476, 5-(2-(4-fluoro-3,5-dimethylphenylamino)-5-methylpyrimidin-4-ylamino)-7-methylbenzo[d]oxazol-2(3H)-one] | > 10000 nM
23 | Cc1cnc(Nc2cc(F)c(F)c(F)c2F)nc1Nc1ccc2oc(=O)[nH]c2c1 [Compound I-477, 5-[5-Methyl-2-(2,3,4,5-tetrafluoro-phenylamino)-pyrimidin-4-ylamino]-3H-benzooxazol-2-one] | 500 to 5000 nM
24 | Cc1cnc(Nc2cc(F)cc(F)c2F)nc1Nc1ccc2oc(=O)[nH]c2c1 [Compound I-480, 5-[5-Methyl-2-(2,3,5-trifluoro-phenylamino)-pyrimidin-4-ylamino]-3H-benzooxazol-2-one] | > 10000 nM
25 | Cc1cnc(Nc2cc(F)c(F)cc2F)nc1Nc1ccc2oc(=O)[nH]c2c1 [Compound I-481, 5-[5-Methyl-2-(2,4,5-trifluoro-phenylamino)-pyrimidin-4-ylamino]-3H-benzooxazol-2-one] | < 500 nM
26 | Cc1cc(Nc2ncc(C)c(Nc3ccc4oc(=O)[nH]c4c3)n2)ccc1-c1ccncc1 [Compound I-482, 5-(5-methyl-2-(3-methyl-4-(pyridin-4-yl)phenylamino)pyrimidin-4-ylamino)benzo[d]oxazol-2(3H)-one formate salt] | < 500 nM
27 | Cc1cc(Nc2ncc(C)c(Nc3ccc4oc(=O)[nH]c4c3)n2)ccc1-c1cccnc1 [Compound I-483, 5-(5-methyl-2-(3-methyl-4-(pyridin-3-yl)phenylamino)pyrimidin-4-ylamino)benzo[d]oxazol-2(3H)-one formate salt] | < 500 nM
28 | Cc1cnc(Nc2ccc(-c3ccncc3)c(F)c2)nc1Nc1ccc2oc(=O)[nH]c2c1 [Compound I-484, 5-(2-(3-fluoro-4-(pyridin-4-yl)phenylamino)-5-methylpyrimidin-4-ylamino)benzo[d]oxazol-2(3H)-one] | 500 to 5000 nM
29 | COc1ccc(Nc2ncc(C)c(Nc3ccc4oc(=O)[nH]c4c3)n2)cc1-c1ccncc1 [Compound I-486, 5-(2-(4-methoxy-3-(pyridin-4-yl)phenylamino)-5-methylpyrimidin-4-ylamino)benzo[d]oxazol-2(3H)-one formate salt] | < 500 nM
30 | COc1ccc(Nc2ncc(C)c(Nc3ccc4oc(=O)[nH]c4c3)n2)cc1-c1cccnc1 [Compound I-487, 5-(2-(4-methoxy-3-(pyridin-3-yl)phenylamino)-5-methylpyrimidin-4-ylamino)benzo[d]oxazol-2(3H)-one formate salt] | < 500 nM
31 | Cc1cc(C)cc(Nc2ncc(C)c(Nc3cc(F)c4oc(=O)[nH]c4c3)n2)c1 [Compound I-488, 5-(2-(3,5-dimethylphenylamino)-5-methylpyrimidin-4-ylamino)-7-fluorobenzo[d]oxazol-2(3H)-one] | < 500 nM

same assay, conditions: tested under conditions described in Example 3 (IL-2 stimulated human primary T-cell proliferation); read-out: ability to inhibit JAK3 activity, IC50 range (Table V)

Row | Compound | IC50
32 | Cc1cnc(Nc2cc(C#N)cc(OC(F)F)c2)nc1Nc1ccc2oc(=O)[nH]c2c1 [Compound I-478, N2-(3-cyano-5-difluoromethoxy)phenyl-5-methyl-N4-(2-oxo-2,3-dihydro-1,3-benzoxazol-5-yl)-2,4-pyrimidinediamine] | < 500 nM
33 | Cc1cc(Nc2ncc(C)c(Nc3ccc4oc(=O)[nH]c4c3)n2)cc(C(F)(F)F)c1 [Compound I-479, 5-methyl-N2-(3-methyl-5-trifluoromethyl)phenyl-N4-(2-oxo-2,3-dihydro-1,3-benzoxazol-5-yl)-2,4-pyrimidinediamine] | < 500 nM
34 | COc1cc(Nc2ncc(C)c(Nc3ccc4oc(=O)[nH]c4c3)n2)cc(C(F)(F)F)c1OC [Compound I-485, N2-(3,4-dimethoxy-5-trifluoromethyl)phenyl-5-methyl-N4-(2-oxo-2,3-dihydro-1,3-benzoxazol-5-yl)-2,4-pyrimidinediamine] | < 500 nM
